Experimental data reported in patent publication US7772241B2, “Variolin derivatives and their use as antitumor agents” (Pharma Mar S.A., priority 2001, dated 2010).

How the values were obtained:
[1] = test system: K-562; assay: Inhibition of cells growth by colorimetric (SRB) assay, K-562; conditions: for GI50 / CC50: Homo sapiens, K562, 48 h; for GI50: read-out: GI50 K-562, SRB assay, 48 hours exposure; for CC50: read-out: LC50 K-562, SRB assay, 48 hours exposure; for TGI K-562: SRB assay, 48 hours exposure
Description: (§1) The finality of these assays is to interrupt the growth of a “in vitro” tumor cell culture by means a continued exhibition of the cells to the sample to be testing.
(§2) This form of the assay employs 96 well cell culture microplates of 9 mm diameter (Faircloth, 1988; Mosmann, 1983). Most of the cell lines are obtained from American Type Culture Collection (ATCC) derived from different human cancer types.
(§3) Cells are maintained in RPMI 1640 10% FBS, supplemented with 0.1 g/l penicillin and 0.1 g/l streptomycin sulphate and then incubated at 37° C., 5% CO2 and 98% humidity. For the experiments, cells were harvested from subconfluent cultures using trypsin and resuspended in fresh medium before plating.
(§4) Cells are seeded in 96 well microtiter plates, at 5×10^3 cells per well in aliquots of 195 μl medium, and they are allowed to attach to the plate surface by growing in drug free medium for 18 hours. Afterward, samples are added in aliquots of 5 μl in a ranging from 10 to 10^−8 μg/ml, dissolved in DMSO/EtOH/PBS (0.5:0.5:99). After 48 hours exposure, the antitumor effect are measured by the SRB methodology: cells are fixed by adding 50 μl of cold 50% (wt/vol) trichloroacetic acid (TCA) and incubating for 60 minutes at 4° C. Plates are washed with deionized water and dried. One hundred μl of SRB solution (0.4% wt/vol in 1% acetic acid) is added to each microtiter well and incubated for 10 minutes at room temperature. Unbound SRB is removed by washing with 1% acetic acid. Plates are air dried and bound stain is solubilized with Tris buffer. Optical densities are read on a automated spectrophotometric plate reader at a single wavelength of 490 nm.
(§5) The values for mean +/−SD of data from triplicate wells are calculated. Some parameters for cellular responses can be calculated: GI=growth inhibition, TGI=total growth inhibition (cytostatic effect) and LC=cell killing (cytotoxic effect).

[2] = test system: A-549; assay: Inhibition of cells growth by colorimetric (SRB) assay, A-549; conditions: for GI50 / CC50: Homo sapiens, A549, 48 h; for GI50: read-out: GI50 A-549, SRB assay, 48 hours exposure; for CC50: read-out: LC50 A-549, SRB assay, 48 hours exposure; for TGI A-549: SRB assay, 48 hours exposure
Description: as §1, §2, §3, §4, §5

[3] = test system: SK-MEL-28; assay: Inhibition of cells growth by colorimetric (SRB) assay, SK-MEL-28; conditions: for GI50 / CC50: Homo sapiens, SK-MEL-28, 48 h; for GI50: read-out: GI50 MEL-28, SRB assay, 48 hours exposure; for CC50: read-out: LC50 MEL-28, SRB assay, 48 hours exposure; for TGI MEL-28: SRB assay, 48 hours exposure
Description: as §1, §2, §3, §4, §5

[4] = test system: HT-29; assay: Inhibition of cells growth by colorimetric (SRB) assay, HT-29; conditions: for GI50 / CC50: Homo sapiens, HT-29, 48 h; for GI50: read-out: GI50 HT-29, SRB assay, 48 hours exposure; for CC50: read-out: LC50 HT-29, SRB assay, 48 hours exposure; for TGI HT-29: SRB assay, 48 hours exposure
Description: as §1, §2, §3, §4, §5

[5] = test system: LoVo; assay: Inhibition of cells growth by colorimetric (SRB) assay, LoVo; conditions: for GI50 / CC50: Homo sapiens, LoVo, 48 h; for GI50: read-out: GI50 LOVO, SRB assay, 48 hours exposure; for CC50: read-out: LC50 LOVO, SRB assay, 48 hours exposure; for TGI LOVO: SRB assay, 48 hours exposure
Description: as §1, §2, §3, §4, §5

[6] = test system: LoVo-Dox; assay: Inhibition of cells growth by colorimetric (SRB) assay, LoVo-Dox; conditions: for GI50 / CC50: Homo sapiens, 48 h; for GI50: read-out: GI50 LOVO-DOX, SRB assay, 48 hours exposure; for CC50: read-out: LC50 LOVO-DOX, SRB assay, 48 hours exposure; for TGI LOVO-DOX: SRB assay, 48 hours exposure
Description: as §1, §2, §3, §4, §5

[7] = test system: DU-145; assay: Inhibition of cells growth by colorimetric (SRB) assay, DU-145; conditions: for GI50 / CC50: Homo sapiens, DU-145, 48 h; for GI50: read-out: GI50 DU-145, SRB assay, 48 hours exposure; for CC50: read-out: LC50 DU-145, SRB assay, 48 hours exposure; for TGI DU-145: SRB assay, 48 hours exposure
Description: as §1, §2, §3, §4, §5

[8] = test system: LNCaP; assay: Inhibition of cells growth by colorimetric (SRB) assay, LNCaP; conditions: for GI50 / CC50: Homo sapiens, LNCaP, 48 h; for GI50: read-out: GI50 LN-caP, SRB assay, 48 hours exposure; for CC50: read-out: LC50 LN-caP, SRB assay, 48 hours exposure; for TGI LN-caP: SRB assay, 48 hours exposure
Description: as §1, §2, §3, §4, §5

[9] = test system: IGROV-1; assay: Inhibition of cells growth by colorimetric (SRB) assay, IGROV-1; conditions: for GI50 / CC50: Homo sapiens, IGROV-1, 48 h; for GI50: read-out: GI50 IGROV, SRB assay, 48 hours exposure; for CC50: read-out: LC50 IGROV, SRB assay, 48 hours exposure; for TGI IGROV: SRB assay, 48 hours exposure
Description: as §1, §2, §3, §4, §5

[10] = test system: IGROV-ET; assay: Inhibition of cells growth by colorimetric (SRB) assay, IGROV-ET; conditions: for GI50 / CC50: Homo sapiens, 48 h; for GI50: read-out: GI50 IGROV-ET, SRB assay, 48 hours exposure; for CC50: read-out: LC50 IGROV-ET, SRB assay, 48 hours exposure; for TGI IGROV-ET: SRB assay, 48 hours exposure
Description: as §1, §2, §3, §4, §5

[11] = test system: SK-OV-3; assay: Inhibition of cells growth by colorimetric (SRB) assay, SK-OV-3; conditions: for GI50 / CC50: Homo sapiens, SK-OV-3, 48 h; for GI50: read-out: GI50 SKOV-3, SRB assay, 48 hours exposure; for CC50: read-out: LC50 SKOV-3, SRB assay, 48 hours exposure; for TGI SKOV-3: SRB assay, 48 hours exposure
Description: as §1, §2, §3, §4, §5

[12] = test system: PANC-1; assay: Inhibition of cells growth by colorimetric (SRB) assay, PANC-1; conditions: for GI50 / CC50: Homo sapiens, PANC-1, 48 h; for GI50: read-out: GI50 PANC-1, SRB assay, 48 hours exposure; for CC50: read-out: LC50 PANC-1, SRB assay, 48 hours exposure; for TGI PANC-1: SRB assay, 48 hours exposure
Description: as §1, §2, §3, §4, §5

SMILES	GI50 [1] [µM]	CC50 [1] [µM]	TGI K-562 [1]	GI50 [2] [µM]	CC50 [2] [µM]	TGI A-549 [2]	GI50 [3] [µM]	CC50 [3] [µM]	TGI MEL-28 [3]	GI50 [4] [µM]	CC50 [4] [µM]	TGI HT-29 [4]	GI50 [5] [µM]	CC50 [5] [µM]	TGI LOVO [5]	GI50 [6] [µM]	CC50 [6] [µM]	TGI LOVO-DOX [6]	GI50 [7] [µM]	CC50 [7] [µM]	further results
Nc1nccc2c(-c3ccncn3)c3c(OCc4ccccc4)ccnc3n12 [Compound 98]	7.82	25.8	1.42E−05	15.3	27.1	2.71E−05	7.52	21.2	1.26E−05	15.6	27.1	2.71E−05	5.02	27.1	1.51E−05	5.92	27.1	1.42E−05	5.94	27.1	TGI DU-145 [7]: 1.41E−05; GI50 [8]: 1.85 µM; CC50 [8]: 23.9 µM; TGI LN-caP [8]: 6.49E−06; GI50 [9]: 8.96 µM; CC50 [9]: 26.8 µM; TGI IGROV [9]: 1.55E−05; GI50 [10]: 7.22 µM; CC50 [10]: 20.1 µM; TGI IGROV-ET [10]: 1.21E−05; GI50 [11]: 10.6 µM; CC50 [11]: 27.1 µM; TGI SKOV-3 [11]: 2.19E−05; GI50 [12]: 5.62 µM; CC50 [12]: 19 µM; TGI PANC-1 [12]: 1.03E−05
Nc1nccc2c(-c3ccnc(O)n3)c3c(O)ccnc3n12 [Compound 106]	10.6	24.5	2.45E−05	18.2	24.5	2.45E−05	8.87	24.5	2.45E−05	24.5	24.5	2.45E−05	24.5	24.5	2.45E−05	8.18	24.5	2.45E−05	16.2	24.5	TGI DU-145 [7]: 2.45E−05; GI50 [8]: 6.42 µM; CC50 [8]: 24.5 µM; TGI LN-caP [8]: 1.64E−05; GI50 [9]: 6.69 µM; CC50 [9]: 24.1 µM; TGI IGROV [9]: 1.27E−05; GI50 [10]: 4.97 µM; CC50 [10]: 24.4 µM; TGI IGROV-ET [10]: 1.10E−05; GI50 [11]: 5.73 µM; CC50 [11]: 24.5 µM; TGI SKOV-3 [11]: 1.51E−05; GI50 [12]: 6.44 µM; CC50 [12]: 24.5 µM; TGI PANC-1 [12]: 1.71E−05
CSc1nccc(-c2c3c(Cl)ccnc3n3c(N)nccc23)n1 [Compound 107]	2.18	29.2	9.19E−06	4.52	29.2	2.70E−05	0.0248	29.2	5.19E−06	1.11	29.2	2.92E−05	0.173	29.2	3.79E−06	0.127	23	5.98E−07	0.653	29.2	TGI DU-145 [7]: 1.44E−05; GI50 [8]: 3.38 µM; CC50 [8]: 25.3 µM; TGI LN-caP [8]: 9.25E−06; GI50 [9]: 2.95 µM; CC50 [9]: 23.7 µM; TGI IGROV [9]: 8.34E−06; GI50 [10]: 1.57 µM; CC50 [10]: 29.2 µM; TGI IGROV-ET [10]: 1.44E−05; GI50 [11]: 0.195 µM; CC50 [11]: 29.2 µM; TGI SKOV-3 [11]: 3.35E−06; GI50 [12]: 4.99 µM; CC50 [12]: 29.2 µM; TGI PANC-1 [12]: 2.92E−05
Nc1nccc(-c2c3c(Cl)ccnc3n3c(N)nccc23)n1 [Compound 113]	6.16	32.1	2.00E−05	4.3	21.4	9.59E−06	2.12	17.6	6.29E−06	4.72	32.1	3.21E−05	1.26	32.1	7.83E−06	2.35	32.1	1.18E−05	1.51	32.1	TGI DU-145 [7]: 6.26E−06; GI50 [8]: 1.57 µM; CC50 [8]: 15.6 µM; TGI LN-caP [8]: 2.39E−06; GI50 [9]: 2.94 µM; CC50 [9]: 24.1 µM; TGI IGROV [9]: 8.53E−06; GI50 [10]: 1.3 µM; CC50 [10]: 32.1 µM; TGI IGROV-ET [10]: 6.00E−06; GI50 [11]: 1.37 µM; CC50 [11]: 32.1 µM; TGI SKOV-3 [11]: 5.39E−06; GI50 [12]: 1.11 µM; CC50 [12]: 32.1 µM; TGI PANC-1 [12]: 2.76E−05
